Consider 13 molecules from US4774250A, “Composition and method for treating differentiated carcinoma or melanoma cells with thiapyrylium dyes” (Dana Farber Cancer Institute, priority 1987, dated 1988).

Like-named read-outs stand apart in the source and are kept apart here.

Assay [1] has as its system CX-1 (human colon carcinoma). The assay can be described thus: Clonogenic in vitro study, inhibition of cell colony formation, CX-1. Type of assay: cell-based. The conditions noted are these: for S (selectivity value): comparative examples; for S (selectivity value) / Selectivity: CV-1 IC50 divided by CX-1 IC50; for IC50: Homo sapiens, Colon carcinoma cell, read-out: CX-1 (colon carcinoma cells IC50 value). As for the experimental part:
This IC50 value is compared for both the CX-1 and CV-1. That is, the CV-1 value is divided by the value for CX-1. If the value is 10 μg/ml for CV-1, and […] for CX-1, then the dye is 10 times as effective in killing off the colon carcinoma cells, compared to the monkey epithelial cells. This is expressed as a selectivity "S" of 10. That is, in order to inhibit 50% of the normal cells, the drug requires ten times the concentration needed for inhibiting 50% of the cancer cells.

Assay [2] relates to stomach cancer. The conditions noted are these: stomach cancer in Japan, Antibiotics Chemother., Vol. 24, pages 149-159 (1978); cited from earlier work.
Assay [3] has as its system human melanoma cell line, LOX. The assay can be described thus: Melanoma test using nude mice protocol (LOX xenograft survival). Particulars: male nude mice, 5 mg/kg IP daily for five days, then three times per week. Type of assay: in vivo, human melanoma cells in athymic Swiss nu/nu mice. The source says: (§1) FIGS. 1-6 are survival plots of cancer-bearing mice treated with the dyes of this invention, compared to a control group of such mice that were untreated. In these plots, "% survival" means the % of the total group (treated "T" or control "C") still surviving on the day in question. The 50% data point is selected for the T/C calculation, as being the point that is statistically meaningful.
(§2) Effectiveness against human cancer can be inferred by tests in the nude mouse-human xenograft model, hereinafter "nude mice protocol". […] 899-903, especially p. 889 (April 1985).
(§3) Nude mice, that is, those deficient in thymic functions, bred and maintained in pathogen-free conditions [See J. Natl. Cancer Inst. 51: 615-619 (1973)] were used in in vivo experiments. For each experiment, nude mice from the same litter and of the same sex which were over 3 months old and weighed at least 25 g were injected or implanted with cancer cells.
A human melanoma cell line, LOX, was used that grows rapidly when inoculated into the peritoneal cavity of athymic mice. […] Cells were then scored for viability with trypan blue and 5 million viable cells made up in 0.1 ml of Dulbecco modified Eagles' medium (DME) were injected intraperitoneally into a group of male athymic Swiss nu/nu mice. […]

In assay [4] the test system is CV-1 (normal monkey kidney epithelial cells). The assay can be described thus: Clonogenic in vitro study, inhibition of cell colony formation, CV-1. The conditions noted are these: for IC50: Primates, Epithelial cell. Type of assay: cell-based. The source says:
As noted above, one of the advantages of the invention is that the thiapyryliums described herein selectively attack the cancer cells as opposed to normal cells. Although knowledge of the mechanism is not essential to the practice of the invention, it is believed this occurs through the preferential inhibition of ATP synthesis in the mitochondria of the cancer cells. Such selectivity is further shown in clonogenic in vitro studies carried out in conventional fashion. That is, cell cultures of CX-1 (human colon carcinoma) and CV-1 (normal monkey kidney epithelial cells) are prepared and treated at various concentrations, in the conventional manner, and the concentration of the dye that inhibits 50% of the cell colonies formation is denoted as IC50. This IC50 value is compared for both the CX-1 and CV-1. That is, the CV-1 value is divided by the value for CX-1. If the value is 10 μg/ml for CV-1, and […] for CX-1, then the dye is 10 times as effective in killing off the colon carcinoma cells, compared to the monkey epithelial cells. This is expressed as a selectivity "S" of 10. That is, in order to inhibit 50% of the normal cells, the drug requires ten times the concentration needed for inhibiting 50% of the cancer cells.
("Retest" in this table refers to a repeat of the clonogenic test on either an entirely different preparation of the compound, or on a different recrystallization of the same preparation. The slight variance in selectivity can be accounted for, it is speculated, by a different moisture content in the preparation or crystallization of the compounds.)

Assay [5] relates to MB49 tumor cells. Put plainly: Treatment of mouse bladder carcinoma (MB49) using thiapyrylium dyes administered IP (survival). Particulars: MB49, male BDF1 mice, 2 mg/kg IP daily for 5 days, then twice a week. The format is in vivo.
Text: as §1
MB49 tumor cells, that is, mouse carcinoma cells induced by the carcinogen 7,12-dimethyl benz[a]anthracene, were injected intraperitoneally into normal male BDF1 mice (2×10^6 /mouse). Each drug treated group and control group had ten mice. Except for the control group, one of the thiapyrylium dyes of Ex. 1 and Ex. 2 was administered intraperitoneally starting the following day in the following manner: 2 mg/kg daily for 5 days followed by 2 mg/kg twice a week. The control group of 10 mice was treated with 0.25 ml of 5% dextrose in water and was the same control group used for both Ex. 5-6. The survival rate was calculated as in the previous examples. The results were that the dye of Ex. 1 produced a T/C of 227%, and the dye of Ex. 2 produced a T/C of 263%, as shown further in FIGS. 5-6.

In assay [6] the test system is human ovarian carcinoma line OVCAR-3. Put plainly: Ovarian carcinoma (OVCAR-3) using nude mice protocol (survival). The conditions noted are these: OVCAR-3, female nude mice, 5 mg/kg IP daily for five days, then twice weekly. The format is in vivo, human ovarian carcinoma cells in nude mice.
Text: as §1, §2, §3
Ex. 1 and 2 were repeated, except they were administered to female nude mice xenografted with human ovarian carcinoma line OVCAR-3. Ten mice were selected for treatment with the thiapyrylium, in an amount of 5 mg/kg administered IP 1 day after the cancer cells were injected. This was repeated as follows: daily for five days followed by twice weekly (usually on Tuesday and Thursday). Ten mice were used as the control group and were injected with 0.25 ml of 5% dextrose in water.

[7] abbreviates: clonogenic, CV-1 normal monkey kidney epithelial cells.
Where [8] appears, read: clonogenic, CX-1 human colon carcinoma.
[9] abbreviates: retest: different preparation or recrystallization, CX-1.
[10] abbreviates: retest: different preparation or recrystallization, CV-1.

As for `CN(C)c1ccc(-c2cc(-c3cccs3)[s+]c(-c3cccs3)c2)cc1` [compound 3, 2,6-Bis(2-thienyl)-4-(4-dimethylaminophenyl)thiapyrylium perchlorate, reference compound], the “S (selectivity value)” value in assay [1] is 1.0.

On to `c1ccc(CN(Cc2ccccc2)c2ccc(-c3cc(-c4ccccc4)[s+]c(-c4ccccc4)c3)cc2)cc1` [compound 8, reference compound], for which the “S (selectivity value)” value in assay [1] is reported as under 7.5.

For the molecule `CN(C)c1ccc(-c2cc(-c3ccccc3)[s+]c(-c3ccccc3)c2)cc1` [compound 2, reference compound], the “S (selectivity value)” value in assay [1] was 5.0.

Consider `CN(C)c1ccc(-c2cc(-c3ccncc3)[s+]c(-c3cccs3)c2)cc1` [compound 4, 4-(4-Dimethylaminophenyl)-2-(4-pyridyl)-6-(2-thienyl)thiapyrylium perchlorate, reference compound], for which the “S (selectivity value)” value in assay [1] came to 3.3.

Consider `COc1cccc2c1C(=O)c1c(O)c3c(c(O)c1C2=O)C[C@@](O)(C(=O)CO)C[C@@H]3O[C@H]1C[C@H](N)[C@H](O)[C@H](C)O1` [Adriamycin], for which the effective response rate in assay [2] is 14.5%.

Broadly, the IC50 is the midpoint of a concentration-inhibition curve. What is called T/C is the ratio of treated to control. In the case of `CN(C)c1ccc(-c2cc(-c3ccccc3)[s+]c(-c3ccccn3)c2)cc1` [T-2, 4-(4-dimethylaminophenyl)-2-phenyl-6-(2-pyridyl)thiapyrylium chloride], the “T/C (test drug versus control, calculated based on 50% survival day)” value in assay [3] is 228%. Moreover, the 50% inhibitory concentration (IC50) amounted to 3 µg/mL in assay [4] (setting [7]) and 0.018 µg/mL in assay [1] (setting [8]). Further, the T/C in assay [5] amounted to 227%; in assay [6], 340%. Further, the Selectivity in assay [1] was 167; in assay [1] (retest) it was 60. The “CX-1 (colon carcinoma cells IC50 value)” value in assay [1] (setting [9]) is 0.005 µg/mL.

Consider `CN(C)c1ccc(-c2cc(-c3ccco3)[s+]c(-c3cccs3)c2)cc1` [compound 5, 4-(4-Dimethylaminophenyl)-2-(2-furyl)-6-(2-thienyl)thiapyrylium perchlorate, reference compound], for which, in assay [1], the “S (selectivity value)” value is given as 13.5.

As for `ClCCN(CCCl)c1ccc(-c2cc(-c3ccccc3)[s+]c(-c3ccccc3)c2)cc1` [compound 9, reference compound], the “S (selectivity value)” value in assay [1] was under 5.0.

Consider `CN(C)c1ccc(-c2cc(-c3ccccc3)[s+]c(-c3ccccn3)c2)cc1` [T-3, 4-(4-dimethylaminophenyl)-2-phenyl-6-(2-pyridyl)thiapyrylium perchlorate], for which the “CV-1 (normal cells IC50 value)” value in assay [4] (setting [7]) and in assay [4] (setting [10]) was 2.5 µg/mL each time. For the same molecule, the Selectivity was found to be 167 in assay [1] and 100 in assay [1] (retest). Also, the “CX-1 (colon carcinoma cells IC50 value)” value turned out to be 0.015 µg/mL in assay [1] (setting [8]) and 0.025 µg/mL in assay [1] (setting [9]).

With `CN(C)c1ccc(-c2cc(-c3ccccc3)[s+]c(-c3ccc(N(C)C)cc3)c2)cc1` [compound 6, reference compound], the “S (selectivity value)” value in assay [1] is 10.0.

For `Cc1cc(N(CCCl)CCCl)ccc1-c1cc(-c2ccccc2)[s+]c(-c2ccccc2)c1` [compound 7, reference compound], the “S (selectivity value)” value in assay [1] is under 7.5.

With `CN(C)c1ccc(-c2cc(-c3ccccn3)[s+]c(-c3cccs3)c2)cc1` [T-1, 4-(4-dimethylaminophenyl)-2-(2-pyridyl)-6-(2-thienyl)thiapyrylium chloride], in assay [3], the “T/C (test drug versus control, calculated based on 50% survival day)” value was 200%. Moreover, the “CV-1 (normal cells IC50 value)” value in assay [4] (setting [7]) stood at 2.0 µg/mL. The T/C is 263% in assay [5] and 321% in assay [6]. For the same molecule, the Selectivity in assay [1] was 200. In assay [1] (setting [8]), the IC50 was 0.01 µg/mL.

Turning to `CN(C)c1ccc(-c2cc(-c3ccccn3)[s+]c(-c3cccs3)c2)cc1` [T-4, 4-(4-dimethylaminophenyl)-2-(2-pyridyl)-6-(2-thienyl)thiapyrylium perchlorate], the results for the IC50 in assay [4] (setting [10]) and in assay [1] (setting [9]) were 1.5 µg/mL and 0.015 µg/mL, respectively. Besides, the “CV-1 (normal cells IC50 value)” value in assay [4] (setting [7]) turned out to be 5.0 µg/mL. Besides, the values for the Selectivity in assay [1] and in assay [1] (retest) were 333 and 100, respectively.
